Data on 3 molecules can be found in patent publication US20040052728A1, “Diagnostic imaging” (priority 1998, published 2004).

Read-outs that look alike come from different tables or passages of the source.

Data set [1] has as its system myocardium. As to the kind of experiment: Open chest ultrasound imaging with partial coronary occlusion (snare on left anterior descending coronary artery). Type of data set: in vivo, dog. The settings on record: for change in contrast effect in the myocardium, except in areas supplied by the stenotic artery: one minute after start of infusion. As to the method: The procedure of Example 1 was repeated except that an occluding snare was placed around the major branch of the left anterior descending coronary artery. An ultrasound transit time flow meter was applied to the same artery and the snare was adjusted to give a stable reduction in blood flow to about 75% of the normal value. Contrast agent and adenosine injections were then administered as in Example 1.
(§1) In order to analyse ultrasound images obtained according to the procedure of Example 1, the images were first converted from video images into grey level digital images (640×480 pixels) using a frame grabber. A fixed central region (399×399 pixels) covering the image sector was selected for further processing. The thus-obtained images were decimated by averaging 3×3 pixels into new images (133×133 pixels) and were then median filtered using a sliding region (5×5 pixels).
(§2) A single image obtained just before onset of adenosine-induced vasodilatation was selected as a geometrical template to which all other images were automatically adjusted to maximum pixel correlation by an affine transformation (6 degrees of freedom). Only pixels within a region of interest in the template image encompassing the left ventricle and its myocardium were used for calculating maximum pairwise pixel grey level correlation.
(§3) 6-10 baseline images from before the appearance of adenosine effects were averaged to give a representative baseline image, and a similar number of images at peak adenosine effect were likewise averaged. The two thus-obtained averaged images were then subtracted and the difference was colour coded. […] The colour coding was selected to represent the range −4 dB (blue colour) to +4 dB (red colour).
Images were acquired as described in Example 3 and processed according to the method of Example 4.
The procedure of Example 3 is repeated except that the bolus injection of adenosine is replaced with a pumpcontrolled infusion of dobutamine at a rate of 15 μg/kg/min.
The procedure of Example 3 is repeated except that the bolus injection of adenosine is replaced with a pumpcontrolled infusion of arbutamine at a rate of 0.4 μg/kg/min.

The test system of data set [2] is myocardium. Kind of data set: Imaging in man: pulse inversion imaging of the heart with contrast agent and adenosine infusion. Type of data set: in vivo, human. Conditions: adenosine i.v. infusion 140 μg/kg/min, apical 2-chamber view, Preparation 1 contrast agent. As to the method: A patient with an angiographically verified 80% left anterior descending arterial stenosis was given an intravenous injection of 1 ml of a perfluorobutane microbubble suspension prepared as in Preparation 1. The heart was imaged with an ATL HDI-5000 scanner and a P4-2 transducer, using ECG-gated (every second end-systole) pulse inversion imaging; the mechanical index was 0.6. The heart was imaged from an apical 2-chamber view. […] Intravenous infusion of adenosine at a rate of 140 μg/kg/min was then started, and a sequence of 30 images, of which 10 were before the onset of adenosine effects in the heart, were stored in digital format. The images were processed as in Example 4, but without the initial video grabbing steps.

The conditions of data set [3]: in vivo; cited from earlier work.
Data set [4] deals with left circumflex perfusion beds. Conditions: contrast agent perfluoropropane-enhanced sonicated dextrose albumin i.v., cited from earlier work.
Data set [5] has as its system myocardium. Kind of data set: Closed chest ultrasound imaging of the heart with contrast agent, then adenosine bolus. The settings on record: Preparation 1 contrast agent. Type of data set: in vivo, dog.
Description: The procedure of Example 1 was repeated with a closed chest dog, using a parasternal transducer position. The resulting ultrasound images were less homogeneous as regards signal intensities than the images obtained in Example 1, as a result of acoustic effects of the intact chest wall.
as §1, §2
6-10 baseline images from before the appearance of adenosine effects were averaged to give a representative baseline image, and a similar number of images at peak adenosine effect were likewise averaged. […]

For data set [6], the system named is myocardium. Kind of data set: Open chest ultrasound imaging of the heart with contrast agent, then adenosine bolus. Type of data set: in vivo, dog. As for the experimental part: A midline sternotomy was performed on an anaesthetised 20 kg mongrel dog and the anterior pericardium was removed. A short axis view of the heart was imaged with an ATL HDI-3000 scanner, using a P5-3 transducer in harmonic mode; a 30 mm silicone rubber spacer having low ultrasound attenuation was placed between the transducer and the anterior surface of the heart. ECG gating was used so as to acquire one image in each end-systole.
as §1, §2, §3
Images were acquired as described in Example 1 and processed according to the method of Example 4. The normal myocardium was depicted with a homogeneous colour indicating a signal increase of some 3-4 dB.

The mark [7] stands for this setting: adenosine 150 μg/kg i.v. bolus after Preparation 1 contrast agent.
Setting [8] is: blood flow reduced to about 75% of normal, adenosine 150 μg/kg i.v. bolus, Preparation 1 contrast agent.
Setting [9] is: following injection of adenosine, processed difference image.

As for `CC(CCc1ccc(O)cc1)NCCc1ccc(O)c(O)c1` (centres unmarked) [dobutamine], the “change in contrast effect in the myocardium, except in areas supplied by the stenotic artery” value in data set [1] (dobutamine infusion 15 μg/kg/min, Preparation 1 contrast agent) was “increase in contrast effect”.

As to `Nc1ncnc2c1ncn2[C@@H]1O[C@H](CO)[C@@H](O)[C@H]1O` [Adenosine, adenosine], in data set [2], the “decrease in signal intensity in myocardial regions supplied by the stenotic artery” value is 1-2 dB and the “increase in signal intensity in normal regions of the myocardium” value was 2-3 dB. The blood pool half-life entry in data set [3] was “only a few seconds”. Besides, in data set [4] (stenoses with diameter in excess of 70%), the “ratio of peak myocardial videointensities, adenosine stress compared to resting” value is 0.8-1.4. Also, the “ratio of peak myocardial videointensities, adenosine stress compared to resting” value in data set [4] (stenoses with diameter not exceeding 50%) was 1.8-2.1. For the same molecule, the “change in echo intensities after injection of adenosine” value in data set [5] (parasternal transducer position) was “general increase in echo intensities comparable to that observed in Example 1”. Also, in data set [5] (peak adenosine effect versus baseline), the “signal increase in normal myocardium (processed difference image)” value is listed as 3-4 dB. For the same molecule, in data set [6] (setting [7]), the “change in echo intensity from the myocardium” value was “distinct general increase in echo intensity”, the “duration of the increase in echo intensity” value was roughly 15 s and the “time from adenosine injection to increase in echo intensity from the myocardium” value turned out to be 7 s. For the same molecule, the “signal increase in normal myocardium (processed difference image)” value in data set [6] (open chest, peak adenosine effect versus baseline, Preparation 1 contrast agent) is 3-4 dB. For the same molecule, in data set [1] (setting [8]), the “change in contrast effect in all other areas of the myocardium” value is reported as “increase” and the “change in contrast effect in tissue areas affected by the occlusion” value is reported as “slight decrease in contrast effect”. Moreover, in data set [1] (setting [9]), the “decrease in signal intensity in myocardial tissue affected by the simulated coronary stenosis” value is 1-3 dB and the “increase in signal intensity in normal myocardium” value is on record as 2-3 dB.

Take `Oc1ccc(CCCCNC[C@H](O)c2ccc(O)c(O)c2)cc1` [arbutamine]: the “change in contrast effect in the myocardium, except in areas supplied by the stenotic artery” value in data set [1] (arbutamine infusion 0.4 μg/kg/min, Preparation 1 contrast agent) is given as “increase in contrast effect”.
